Measured values published in ChEMBL document CHEMBL4402510, “Caprazamycins: Promising lead structures acting on a novel antibacterial target MraY” (Eur J Med Chem, 2019).
In brackets after ≈: the same amount, converted by molar mass. One block for each molecule: values may come before it.

What was measured:
Haemophilus influenzae = test: Antibacterial activity against Haemophilus influenzae ATCC 10211; type: functional
Enterococcus faecalis [1] = test: Antibacterial activity against Enterococcus faecalis SR7914 (VRE); type: functional
Enterococcus faecalis [2] = test: Antibacterial activity against Enterococcus faecalis ATCC 29212; type: functional
Enterococcus faecalis [3] = test: Antibacterial activity against t Enterococcus faecalis after 20 hrs by NCCLS-based two-fold broth dilution method; type: functional; conditions: read-out: MIC
Enterococcus faecalis [4] = test: Antibacterial activity against t Enterococcus faecalis VRE after 20 hrs by NCCLS-based two-fold broth dilution method; type: functional; conditions: read-out: MIC
Pseudomonas aeruginosa = test: Antibacterial activity against Pseudomonas aeruginosa ATCC 27853; type: functional
Enterococcus faecium [5] = test: Antibacterial activity against Enterococcus faecium ATCC 19434; type: functional
[6] = target: T1, Phospho-N-acetylmuramoyl-pentapeptide-transferase (Aquifex aeolicus (strain VF5), UniProt O66465); test: Inhibition of MraY in Aquifex aeolicus
T1 sequence (O66465 whole entry): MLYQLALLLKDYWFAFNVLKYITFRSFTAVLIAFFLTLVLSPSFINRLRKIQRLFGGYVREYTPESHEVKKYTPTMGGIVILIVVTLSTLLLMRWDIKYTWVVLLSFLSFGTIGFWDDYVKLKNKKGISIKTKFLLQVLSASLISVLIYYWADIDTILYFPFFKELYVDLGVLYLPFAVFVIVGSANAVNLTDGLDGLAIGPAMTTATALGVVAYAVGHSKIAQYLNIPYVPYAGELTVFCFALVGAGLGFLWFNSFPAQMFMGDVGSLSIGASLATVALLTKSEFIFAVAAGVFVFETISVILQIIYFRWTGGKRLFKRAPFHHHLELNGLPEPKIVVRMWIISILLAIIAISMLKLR

Staphylococcus aureus [7] = test: Antibacterial activity against methicillin resistant Staphylococcus aureus ATCC 43300; type: functional
Escherichia coli = test: Antibacterial activity against Escherichia coli ATCC 8730; type: functional
Citrobacter freundii = test: Antibacterial activity against Citrobacter freundii ATCC 8090; type: functional
Staphylococcus aureus [8] = test: Antibacterial activity against Staphylococcus aureus ATCC 25923; type: functional
Staphylococcus aureus [9] = test: Antibacterial activity against methicillin resistant Staphylococcus aureus SR3637; type: functional
Staphylococcus aureus [10] = test: Antibacterial activity against methicillin susceptible Staphylococcus aureus ATCC 29213; type: functional
Enterococcus faecium [11] = test: Antibacterial activity against Enterococcus faecium SR7917 (VRE); type: functional
[12] = target: T2, Phospho-N-acetylmuramoyl-pentapeptide-transferase (Staphylococcus aureus, UniProt P0C1R8); test: Inhibition of MraY in Staphylococcus aureus
T2 sequence (P0C1R8 whole entry): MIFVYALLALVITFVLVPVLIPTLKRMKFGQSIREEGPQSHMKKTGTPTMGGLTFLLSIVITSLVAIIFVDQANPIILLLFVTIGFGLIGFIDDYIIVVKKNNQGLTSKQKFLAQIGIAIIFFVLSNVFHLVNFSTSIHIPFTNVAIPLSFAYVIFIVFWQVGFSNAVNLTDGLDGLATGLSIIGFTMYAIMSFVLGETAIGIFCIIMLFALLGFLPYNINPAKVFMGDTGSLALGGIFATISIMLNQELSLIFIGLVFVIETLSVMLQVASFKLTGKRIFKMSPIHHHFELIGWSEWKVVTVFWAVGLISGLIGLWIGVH

[13] = target: T3, Phospho-N-acetylmuramoyl-pentapeptide-transferase (Bacillus subtilis (strain 168), UniProt Q03521); test: Inhibition of MraY in Bacillus subtilis
T3 sequence (Q03521 whole entry): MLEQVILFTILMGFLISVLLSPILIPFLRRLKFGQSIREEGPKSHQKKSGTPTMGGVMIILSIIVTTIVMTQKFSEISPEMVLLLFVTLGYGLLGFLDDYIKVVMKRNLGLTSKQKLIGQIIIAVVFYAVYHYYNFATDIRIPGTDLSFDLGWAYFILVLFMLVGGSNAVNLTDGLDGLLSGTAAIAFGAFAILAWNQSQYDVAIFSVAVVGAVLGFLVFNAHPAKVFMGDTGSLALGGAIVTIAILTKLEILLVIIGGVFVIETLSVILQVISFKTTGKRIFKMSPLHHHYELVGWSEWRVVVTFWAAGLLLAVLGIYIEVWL

MIC (Haemophilus influenzae): 0.25 µg/mL (≈ 0.382 µM) | MIC (Enterococcus faecalis [1]): 8 µg/mL (≈ 12.2 µM) | MIC (Enterococcus faecalis [2]): 16 µg/mL (≈ 24.5 µM)
Structure (SMILES): CCCCCCCCCCCCCCCC(=O)OC[C@@H]1[C@H](C(N)=O)[C@@H]([C@H]2O[C@@H](n3ccc(=O)[nH]c3=O)[C@H](O)[C@@H]2O)ON1CCCN

MIC (Enterococcus faecalis [3]): 4 µg/mL (≈ 6.1 µM) | MIC (Enterococcus faecalis [1]): 4 µg/mL (≈ 6.1 µM) | MIC (Enterococcus faecalis [4]): 4 µg/mL (≈ 6.1 µM) | MIC (Enterococcus faecalis [2]): 4 µg/mL (≈ 6.1 µM)
Structure (SMILES): CCCCCCCCCCCC(=O)N[C@@H]1CCN[C@@H]([C@H](O[C@@H]2O[C@H](CN)[C@@H](O)[C@H]2O)[C@H]2O[C@@H](n3ccc(=O)[nH]c3=O)[C@H](O)[C@@H]2O)C1

Structure (SMILES): NC[C@H]1O[C@@H](O[C@@H](Cn2cc(CCCCCCCCCCc3ccccc3)nn2)[C@H]2O[C@@H](n3ccc(=O)[nH]c3=O)[C@H](O)[C@@H]2O)[C@H](O)[C@@H]1O
MIC (Pseudomonas aeruginosa): 64 µg/mL (≈ 95.1 µM) | MIC (Enterococcus faecium [5]): 32 µg/mL (≈ 47.6 µM) | IC50 [6]: 30 µM | MIC (Staphylococcus aureus [7]): 16 µg/mL (≈ 23.8 µM) | MIC (Escherichia coli): > 128 µg/mL | MIC (Citrobacter freundii): > 128 µg/mL | MIC (Staphylococcus aureus [8]): 64 µg/mL (≈ 95.1 µM)

Structure (SMILES): CCCCCCCCCCCCCCCCC[C@H]1CN(C)[C@@H]([C@H](O[C@@H]2O[C@H](CN)[C@@H](O)[C@H]2O)[C@H]2O[C@@H](n3ccc(=O)[nH]c3=O)[C@H](O)[C@@H]2O)C(=O)N(C)[C@@H]1C(=O)O
MIC (Staphylococcus aureus [9]): 8 µg/mL (≈ 10 µM) | MIC (Enterococcus faecium [5]): 8 µg/mL (≈ 10 µM) | MIC (Staphylococcus aureus [10]): 8 µg/mL (≈ 10 µM) | MIC (Enterococcus faecium [11]): 8 µg/mL (≈ 10 µM) | MIC (Enterococcus faecalis [1]): 8 µg/mL (≈ 10 µM) | IC50 [12]: 6.9 µM | MIC (Enterococcus faecalis [2]): 4 µg/mL (≈ 5.01 µM)

Structure (SMILES): CCCCCCCCCCCCCCCCC[C@H]1CN[C@@H]([C@H](O[C@@H]2O[C@H](CN)[C@@H](O)[C@H]2O)[C@H]2O[C@@H](n3ccc(=O)[nH]c3=O)[C@H](O)[C@@H]2O)C(=O)N(C)[C@@H]1C(=O)O
MIC (Staphylococcus aureus [9]): 8 µg/mL (≈ 10.2 µM) | MIC (Enterococcus faecium [5]): 8 µg/mL (≈ 10.2 µM) | MIC (Staphylococcus aureus [10]): 8 µg/mL (≈ 10.2 µM) | MIC (Enterococcus faecium [11]): 16 µg/mL (≈ 20.4 µM) | MIC (Enterococcus faecalis [1]): 16 µg/mL (≈ 20.4 µM) | IC50 [12]: 3.8 µM | MIC (Enterococcus faecalis [2]): 8 µg/mL (≈ 10.2 µM)

Structure (SMILES): CCCCCCCCCCc1cn(C[C@H](O[C@@H]2O[C@H](CN)[C@@H](O)[C@H]2O)[C@H]2O[C@@H](n3ccc(=O)[nH]c3=O)[C@H](O)[C@@H]2O)nn1
MIC (Pseudomonas aeruginosa): 128 µg/mL (≈ 215 µM) | MIC (Enterococcus faecium [5]): > 128 µg/mL | IC50 [6]: 35 µM | MIC (Staphylococcus aureus [7]): 64 µg/mL (≈ 107 µM) | MIC (Escherichia coli): > 128 µg/mL | MIC (Citrobacter freundii): > 128 µg/mL | MIC (Staphylococcus aureus [8]): 16 µg/mL (≈ 26.8 µM)

Structure (SMILES): NC[C@H]1O[C@@H](O[C@@H](c2cn(Cc3ccc(COc4ccc(C(=O)c5ccccc5)cc4)cc3)nn2)[C@H]2O[C@@H](n3ccc(=O)[nH]c3=O)[C@H](O)[C@@H]2O)[C@H](O)[C@@H]1O
IC50 [13]: 50 µM | MIC (Pseudomonas aeruginosa): > 128 µg/mL | MIC (Enterococcus faecium [5]): > 128 µg/mL | IC50 [6]: 75 µM | MIC (Staphylococcus aureus [7]): 32 µg/mL (≈ 43.1 µM) | MIC (Escherichia coli): > 128 µg/mL | MIC (Citrobacter freundii): > 128 µg/mL | MIC (Staphylococcus aureus [8]): > 128 µg/mL

Structure (SMILES): NC[C@H]1O[C@@H](O[C@@H](Cc2cn(Cc3ccc(COc4ccc(C(=O)c5ccccc5)cc4)cc3)nn2)[C@H]2O[C@@H](n3ccc(=O)[nH]c3=O)[C@H](O)[C@@H]2O)[C@H](O)[C@@H]1O
MIC (Pseudomonas aeruginosa): > 128 µg/mL | MIC (Enterococcus faecium [5]): > 128 µg/mL | IC50 [6]: 20 µM | MIC (Staphylococcus aureus [7]): 32 µg/mL (≈ 42.3 µM) | MIC (Escherichia coli): > 128 µg/mL | MIC (Citrobacter freundii): > 128 µg/mL | MIC (Staphylococcus aureus [8]): 64 µg/mL (≈ 84.6 µM)
